Data on 24 compounds can be found in patent US20230234942A1, “COMPOUNDS FOR TREATING HUNTINGTON'S DISEASE” (PTC Therapeutics, Inc., priority 2020, published 2023).

pIC50: −log10 of the molar value.

The assay concerns Endogenous Huntingtin Protein. Briefly: Endogenous Huntingtin Protein Assay (ELISA-based MSD electrochemiluminescence). Format: cell-based. As to conditions: Table 2; MSD plates coated with MW1 (expanded polyglutamine) or MAB2166 capture antibody; "inactive" = result above the detection limit of the assay. On the procedure: Compounds of Formula (I) were tested using the Meso Scale Discovery (MSD) Assay provided in International Application No. PCT/US2016/066042, filed on Dec. 11, 2016 and claiming priority to U.S. Provisional Application 62/265,652 filed on Dec. 10, 2015, the entire contents of which are incorporated herein by reference.
The Endogenous Huntingtin Protein assay used in Biological Example 1 was developed using the ELISA-based MSD electrochemiluminescence assay platform.
Meso Scale Discovery (MSD) 96-well or 384-well plates were coated overnight at 4° C. with MW1 (expanded polyglutamine) or MAB2166 monoclonal antibody (for capture) at a concentration of 1 μg/mL in PBS (30 μL per well). Plates were then washed three times with 300 μL wash buffer (0.05% Tween-20 in PBS) and blocked (100 μL blocking buffer; 5% BSA in PBS) for 4-5 hours at room temperature with rotational shaking and then washed three times with wash buffer.
Samples (25 μL) were transferred to the antibody-coated MSD plate and incubated overnight at 4° C. After removal of the lysates, the plate was washed three times with wash buffer, and 25 μL of #56565 (Cell signaling; rabbit monoclonal) secondary antibody (diluted to 0.25 μg/mL in 0.05% Tween-20 in blocking buffer) was added to each well and incubated with shaking for 1 Hour at room temperature. Following incubation with the secondary antibody, the wells were rinsed with wash buffer after which 25 μL of goat anti-rabbit SULFO TAG secondary detection antibody (required aspect of the MSD system) (diluted to 0.25 μg/mL in 0.05% Tween-20 in blocking buffer) was added to each well and incubated with shaking for 1 hour at room temperature. After rinsing three times with wash buffer, 150 μL of read buffer T with surfactant (MSD) were added to each empty well, and the plate was imaged on a SI 6000 imager (MSD) according to manufacturers' instructions provided for 96- or 384-well plates.
(An ELISA detects its analyte on a solid surface through an enzyme-linked reagent.)
Consider `Cc1ccc2c(cnn2-c2ccc(-c3cnc(N4CCN[C@@H](C(C)C)C4)nn3)c(O)c2)n1` [Cpd 155, 5-(5-methyl-1H-pyrazolo[4,3-b]pyridin-1-yl)-2-{3-[(3S)-3-(propan-2-yl)piperazin-1-yl]-1,2,4-triazin-6-yl}phenol], for which the pIC50 (in general, −log10 of the IC50, conventionally taken in molar units) was 7.71.
The result for `Cc1nnn2cc(-c3ccc(-c4cnc(N5CCN[C@@H](C6CC6)C5)nn4)c(O)c3)ccc12` [Cpd 193, 2-{3-[(3S)-3-cyclopropylpiperazin-1-yl]-1,2,4-triazin-6-yl}-5-(3-methyl[1,2,3]triazolo[1,5-a]pyridin-6-yl)phenol] reads 8.32.
As for `Cn1cc(-c2ccc(-c3cnc(N4CCN[C@@H](C(C)(C)C)C4)nn3)c(O)c2)cn1` [Cpd 21, 2-{3-[(3S)-3-tert-butylpiperazin-1-yl]-1,2,4-triazin-6-yl]-5-(1-methyl-1H-pyrazol-4-yl)phenol], the pIC50 was 7.68.
In turn, `CC(C)[C@H]1CN(c2ncc(-c3ccc(-n4ccnc4)cc3O)nn2)CCN1` [Cpd 142, 5-(1H-imidazol-1-yl)-2-{3-[(3S)-3-(propan-2-yl)piperazin-1-yl]-1,2,4-triazin-6-yl}phenol] gave a negative logarithm of the IC50 (pIC50) of 7.22.
The result for `CC(C)C1CN(c2ncc(-c3ccc(-c4cn[nH]c4)cc3O)nn2)CCN1` (stereo not drawn) [Cpd 22, 2-{3-[3-(propan-2-yl)piperazin-1-yl]-1,2,4-triazin-6-yl}-5-(1H-pyrazol-4-yl)phenol] reads 7.65; that for `Cc1cnc(-c2ccc(-c3cnc(N4CCN[C@@H](C(C)C)C4)nn3)c(O)c2)cn1` [Cpd 145, 5-(5-methylpyrazin-2-yl)-2-{3-[(3S)-3-(propan-2-yl)piperazin-1-yl]-1,2,4-triazin-6-yl}phenol], 6.32; that for `CC(C)[C@H]1CN(c2ncc(-c3ccc(-c4nc(Cl)cs4)cc3O)nn2)CCN1` [Cpd 188, 5-(4-chloro-1,3-thiazol-2-yl)-2-{3-[(3S)-3-(propan-2-yl)piperazin-1-yl]-1,2,4-triazin-6-yl}phenol], 6.98.
Regarding `Oc1cc(-c2cn[nH]c2)ccc1-c1cnc(N2CCNC3(CCCC3)C2)nn1` [Cpd 43, 2-[3-(6,9-diazaspiro[4.5]decan-9-yl)-1,2,4-triazin-6-yl]-5-(1H-pyrazol-4-yl)phenol], the pIC50 is 6.93.
In the case of `CC(C)[C@H]1CN(c2ncc(-c3ccc(-c4ncns4)cc3O)nn2)C[C@@H](C)N1` (single isomer, unassigned) [Cpd 268, 2-{3-[(3R,5S)-3-methyl-5-(propan-2-yl)piperazin-1-yl]-1,2,4-triazin-6-yl}-5-(1,2,4-thiadiazol-5-yl)phenol or 2-{3-[(3S,5R)-3-methyl-5-(propan-2-yl)piperazin-1-yl]-1,2,4-triazin-6-yl}-5-(1,2,4-thiadiazol-5-yl)phenol], the negative logarithm of the IC50 (pIC50) was 6.90.
The compound `Cn1nnc2nc(-c3ccc(-c4cnc(N5CCN[C@@H](C6CC6)C5)nn4)c(O)c3)ccc21` [Cpd 171, 2-{3-[(3S)-3-cyclopropylpiperazin-1-yl]-1,2,4-triazin-6-yl}-5-(1-methyl-1H-[1,2,3]triazolo[4,5-b]pyridin-5-yl)phenol] gave a pIC50 of 7.85.
In turn, `CC(C)C1CN(c2ncc(-c3ccc(-c4c[nH]nc4F)cc3O)nn2)CCN1` (stereo not drawn) [Cpd 15, 5-(3-fluoro-1H-pyrazol-4-yl)-2-{3-[3-(propan-2-yl)piperazin-1-yl]-1,2,4-triazin-6-yl]phenol] showed a pIC50 of 7.89.
Regarding `Cn1cc2cc(-c3ccc(-c4cnc(N5CCNC(CO)C5)nn4)c(O)c3)cc(F)c2n1` (stereo not drawn) [Cpd 65, 5-(7-fluoro-2-methyl-2H-indazol-5-yl)-2-{3-[3-(hydroxymethyl)piperazin-1-yl]-1,2,4-triazin-6-yl}phenol], the negative logarithm of the IC50 (pIC50) was 8.80.
Take `CNc1ccc(-c2ccc(-c3cnc(N4CCN[C@@H](C5CC5)C4)nn3)c(O)c2)cc1` [Cpd 179, 4-{3-[(3S)-3-cyclopropylpiperazin-1-yl]-1,2,4-triazin-6-yl}-4‘-(methylamino)[1,1‘-biphenyl]-3-ol]: the pIC50 was 6.95.
The result for `COc1cc(-c2ccc(-c3cnc(N4C[C@@H](C)N[C@@H](C5CC5)C4)nn3)c(O)c2)ncn1` [Cpd 235, 2-{3-[(3S,5R)-3-cyclopropyl-5-methylpiperazin-1-yl]-1,2,4-triazin-6-yl}-5-(6-methoxypyrimidin-4-yl)phenol] reads 8.09; that for `Cc1cn2cc(-c3cnc(-c4cnc(N5CCN(C)CC5)nn4)c(O)c3)cc(F)c2n1` [Cpd 122, 5-(8-fluoro-2-methylimidazo[1,2-a]pyridin-6-yl)-2-[3-(4-methylpiperazin-1-yl)-1,2,4-triazin-6-yl]pyridin-3-ol], 7.39; that for `CC(C)[C@H]1CN(c2ncc(-c3ccc(-c4nccs4)cc3O)nn2)CCN1` [Cpd 185, 2-{3-[(3S)-3-(propan-2-yl)piperazin-1-yl]-1,2,4-triazin-6-yl}-5-(1,3-thiazol-2-yl)phenol], 6.80.
On to `CC1(C2CN(c3ncc(-c4ccc(-c5cn[nH]c5)cc4O)nn3)CCN2)CC1` (stereo not drawn) [Cpd 134, 2-{3-[3-(1-methylcyclopropyl)piperazin-1-yl]-1,2,4-triazin-6-yl}-5-(1H-pyrazol-4-yl)phenol], for which the pIC50 is 7.83.
Compound `CCN1CCN(c2ncc(-c3ccc(-c4cc(F)c5nc(C)cn5c4)cc3O)nn2)CC1` [Cpd 77, 2-[3-(4-ethylpiperazin-1-yl)-1,2,4-triazin-6-yl]-5-(8-fluoro-2-methylimidazo[1,2-a]pyridin-6-yl)phenol] gave a pIC50 of 8.31.
The same measure for `CC[C@H]1CN(c2ncc(-c3ccc(-c4cnc5nn(C)nc5c4)cc3O)nn2)C[C@@H](C)N1` [Cpd 214, 2-{3-[(3S,5R)-3-ethyl-5-methylpiperazin-1-yl]-1,2,4-triazin-6-yl]-5-(2-methyl-2H-[1,2,3]triazolo[4,5-b]pyridin-6-yl)phenol]: 7.44; for `CC[C@H]1CN(c2ncc(-c3ccc(-c4cn[nH]c4)cc3O)nn2)CCN1` [Cpd 23, 2-{3-[(3S)-3-ethylpiperazin-1-yl]-1,2,4-triazin-6-yl}-5-(1H-pyrazol-4-yl)phenol]: 7.64; for `Oc1cc(-c2ccncn2)ccc1-c1cnc(N2CCN[C@@H](C3CC3)C2)nn1` [Cpd 192, 2-{3-[(3S)-3-cyclopropylpiperazin-1-yl]-1,2,4-triazin-6-yl}-5-(pyrimidin-4-yl)phenol]: 7.47.
Turning to `CCc1cc(-c2ccc(-c3cnc(N4CCN[C@@H](C(C)C)C4)nn3)c(O)c2)cn2cc(C)nc12` [Cpd 138, 5-(8-ethyl-2-methylimidazo[1,2-a]pyridin-6-yl)-2-{3-[(3S)-3-(propan-2-yl)piperazin-1-yl]-1,2,4-triazin-6-yl}phenol], the pIC50 is 7.70.
On to “4-fluoro-5-[1-(^2H3)methyl-1H-pyrazol-4-yl]-2-{3-[(3S)-3-(propan-2-yl)piperazin-1-yl]-1,2,4-triazin-6-yl}phenol [Cpd 152]”, for which the pIC50 is 7.82.
Compound `COc1cc(-c2ccc(-c3cnc(N4C[C@@H](C5CC5)N[C@@H](C)C4)nn3)c(O)c2)nc(OC)n1` [Cpd 220, 2-{3-[(3R,5S)-3-cyclopropyl-5-methylpiperazin-1-yl]-1,2,4-triazin-6-yl}-5-(2,6-dimethoxypyrimidin-4-yl)phenol] had a pIC50 of 7.05.
